Measurements published in patent US7202196B2, “Selective herbicide comprising a tetrazolinone derivative” (Bayer Cropscience AG, priority 2001, dated 2007).

Experiments:
Format in all cases: in vivo
Echinochloa crus-galli [1] = assay: Example I: test in sown rice (Thailand), herbicidal effect; conditions: fentrazamide 50 WP 135 g a.i./ha; spray 7 days after sowing (2-leaf-stage); scored 3 weeks after application; outdoor test Thailand 1999
Description: (§1) To prepare a spray preparation, the active compound preparations are mixed with water. The concentration is adjusted so that the application rate corresponds to 200 l of water/ha.
(§2) Rice seeds are sown in test plots (2.5 m×2.5 m) in rice paddies. 7 days after sowing (2-leaf-stage of the rice), the spray preparation is applied to the test areas (using a hand-operated sprayer). 2 days after the treatment, the soil is flooded to a water depth of 5 cm; the standing water levels are kept constant.
(§3) 3 weeks after the active compound application, the degree of damage to the rice plants and the herbicidal effect on the emerged weeds Echinochloa crus-galli is scored visually in percent in comparison to an untreated control.
(§4) The figures denote: • 0%=no action/damage (like untreated control) • 100%=total destruction

Paddy rice (Oryza sp.) [2] = assay: Example G: test in sown rice (Philippines), damage to rice; conditions: fentrazamide 50 WP 135 g a.i./ha; spray 11 days after sowing (4-leaf-stage); scored 8 weeks after application; outdoor test Philippines 1999
Description: as §1
as §2, with “11” for “7”, “(4-leaf-stage” for “(2-leaf-stage”, “1 day” for “2 days”
(§5) 8 weeks after the active compound application, the degree of damage to the rice plants and the herbicidal effect on the emerged weeds of the species Echinochloa crus-galli is scored visually in percent in comparison to an untreated control.
as §4

Paddy rice (Oryza sp.) [3] = assay: Example D: test in sown rice (Brazil), damage to rice; conditions: fentrazamide 250 EC 300 g a.i./ha; spray at BBCH 23 stage of the rice, 29 days after sowing; scored 2 weeks after application; outdoor test Brazil 1999
Description: as §1
as §2, with “(2 m×5” for “(2.5 m×2.5”, “29” for “7”, “(during the BBCH 23 development stage” for “(2-leaf-stage”, “rice; begin of stocking),” for “rice),”, “A few” for “2”
(§6) 2 weeks after the active compound application, the degree of damage to the rice plants and the herbicidal effect on the emerged weeds Echinochloa crus-galli and Brachiaria plantaginea is scored visually in percent in comparison to an untreated control.
as §4

Leptochloa chinensis = assay: Example H: test in sown rice (Thailand), herbicidal effect; conditions: fentrazamide 50 WP 135 g a.i./ha; spray 7 days after sowing (2-leaf-stage); scored 8 weeks after application; outdoor test Thailand 1999
Description: as §1, §2
(§7) 8 weeks after the active compound application, the degree of damage to the rice plants and the herbicidal effect on the emerged weeds Echinochloa crus-galli and Leptochloa chinensis is scored visually in percent in comparison to an untreated control.
as §4

Echinochloa crus-galli [4] = assay: as above; conditions: fentrazamide 50 WP 135 g a.i./ha; spray 7 days after sowing (2-leaf-stage); scored 8 weeks after application; outdoor test Thailand 1999
Description: as §1, §2, §7, §4

Brachiaria plantaginea [5] = assay: Example E: test in sown rice (Brazil), herbicidal effect; conditions: fentrazamide 250 EC 300 g a.i./ha; spray at BBCH 23 stage of the rice, 29 days after sowing; scored 2 weeks after application; outdoor test Brazil 1999
Description: as §1
as §2, with “(2 m×5” for “(2.5 m×2.5”, “29” for “7”, “(during the BBCH 23 development stage” for “(2-leaf-stage”, “rice; begin of stocking),” for “rice),”, “A few” for “2”
as §6, §4

Echinochloa crus-galli [6] = assay: as above; conditions: fentrazamide 250 EC 300 g a.i./ha; spray at BBCH 23 stage of the rice, 29 days after sowing; scored 2 weeks after application; outdoor test Brazil 1999
Description: as §1
as §2, with “(2 m×5” for “(2.5 m×2.5”, “29” for “7”, “(during the BBCH 23 development stage” for “(2-leaf-stage”, “rice; begin of stocking),” for “rice),”, “A few” for “2”
as §6, §4

Echinochloa crus-galli [7] = assay: Example G: test in sown rice (Philippines), herbicidal effect; conditions: fentrazamide 50 WP 135 g a.i./ha; spray 11 days after sowing (4-leaf-stage); scored 8 weeks after application; outdoor test Philippines 1999
Description: as §1
as §2, with “11” for “7”, “(4-leaf-stage” for “(2-leaf-stage”, “1 day” for “2 days”
as §5, §4

Commelina benghalensis = assay: Example F: test in sown rice (Brazil), herbicidal effect; conditions: fentrazamide 250 EC 300 g a.i./ha; spray at BBCH 12 stage of the rice (2-leaf-stage), 18 days after sowing; scored 3 weeks after application; outdoor test Brazil 1999
Description: as §1
(§8) Rice seeds are sown in test plots (2 m×5 m) in rice paddies. 18 days after sowing (during the BBCH 12 development stage of the rice; corresponds to the 2-leaf-stage), the spray preparation is applied to the test areas (using a hand-operated sprayer).
(§9) 3 weeks after the active compound application, the degree of damage to the rice plants and the herbicidal effect on the emerged weeds Acanthospermum hispidum, Commelina benghalensis, Digitaria sanguinalis and Eleusine indica is scored visually in percent in comparison to an untreated control.
as §4

Acanthospermum hispidum = assay: as above; conditions: fentrazamide 250 EC 300 g a.i./ha; spray at BBCH 12 stage of the rice (2-leaf-stage), 18 days after sowing; scored 3 weeks after application; outdoor test Brazil 1999
Description: as §1, §8, §9, §4

Eleusine indica = assay: as above; conditions: fentrazamide 250 EC 300 g a.i./ha; spray at BBCH 12 stage of the rice (2-leaf-stage), 18 days after sowing; scored 3 weeks after application; outdoor test Brazil 1999
Description: as §1, §8, §9, §4

Digitaria sanguinalis = assay: as above; conditions: fentrazamide 250 EC 300 g a.i./ha; spray at BBCH 12 stage of the rice (2-leaf-stage), 18 days after sowing; scored 3 weeks after application; outdoor test Brazil 1999
Description: as §1, §8, §9, §4

[8] = system: Mountain rice (Oryza sp.); assay: Example F: test in sown rice (Brazil), damage to rice; conditions: fentrazamide 250 EC 300 g a.i./ha; spray at BBCH 12 stage of the rice (2-leaf-stage), 18 days after sowing; scored 3 weeks after application; outdoor test Brazil 1999
Description: as §1, §8, §9, §4

Paddy rice (Oryza sp.) [9] = assay: Example C: test in sown rice (Brazil), damage to rice; conditions: fentrazamide 250 EC 300 g a.i./ha; spray at BBCH 23 stage of the rice, 29 days after sowing; scored 2 weeks after application; outdoor test Brazil 1999
Description: as §1
as §2, with “(2 m×5” for “(2.5 m×2.5”, “29” for “7”, “(during the BBCH 23 development stage” for “(2-leaf-stage”, “rice; begin of stocking),” for “rice),”, “A few” for “2”
as §6, §4

Paddy rice (Oryza sp.) [10] = assay: Example H: test in sown rice (Thailand), damage to rice; conditions: fentrazamide 50 WP 135 g a.i./ha; spray 7 days after sowing (2-leaf-stage); scored 8 weeks after application; outdoor test Thailand 1999
Description: as §1, §2, §7, §4

Paddy rice (Oryza sp.) [11] = assay: Example I: test in sown rice (Thailand), damage to rice; conditions: fentrazamide 50 WP 135 g a.i./ha; spray 7 days after sowing (2-leaf-stage); scored 3 weeks after application; outdoor test Thailand 1999
Description: as §1, §2, §3, §4

Brachiaria plantaginea [12] = assay: Example D: test in sown rice (Brazil), herbicidal effect; conditions: fentrazamide 250 EC 300 g a.i./ha; spray at BBCH 23 stage of the rice, 29 days after sowing; scored 2 weeks after application; outdoor test Brazil 1999
Description: as §1
as §2, with “(2 m×5” for “(2.5 m×2.5”, “29” for “7”, “(during the BBCH 23 development stage” for “(2-leaf-stage”, “rice; begin of stocking),” for “rice),”, “A few” for “2”
as §6, §4

Echinochloa crus-galli [13] = assay: as above; conditions: fentrazamide 250 EC 300 g a.i./ha; spray at BBCH 23 stage of the rice, 29 days after sowing; scored 2 weeks after application; outdoor test Brazil 1999
Description: as §1
as §2, with “(2 m×5” for “(2.5 m×2.5”, “29” for “7”, “(during the BBCH 23 development stage” for “(2-leaf-stage”, “rice; begin of stocking),” for “rice),”, “A few” for “2”
as §6, §4

Brachiaria plantaginea [14] = assay: Example C: test in sown rice (Brazil), herbicidal effect; conditions: fentrazamide 250 EC 300 g a.i./ha; spray at BBCH 23 stage of the rice, 29 days after sowing; scored 2 weeks after application; outdoor test Brazil 1999
Description: as §1
as §2, with “(2 m×5” for “(2.5 m×2.5”, “29” for “7”, “(during the BBCH 23 development stage” for “(2-leaf-stage”, “rice; begin of stocking),” for “rice),”, “A few” for “2”
as §6, §4

Echinochloa crus-galli [15] = assay: as above; conditions: fentrazamide 250 EC 300 g a.i./ha; spray at BBCH 23 stage of the rice, 29 days after sowing; scored 2 weeks after application; outdoor test Brazil 1999
Description: as §1
as §2, with “(2 m×5” for “(2.5 m×2.5”, “29” for “7”, “(during the BBCH 23 development stage” for “(2-leaf-stage”, “rice; begin of stocking),” for “rice),”, “A few” for “2”
as §6, §4

Brachiaria plantaginea [16] = assay: Example B: test in sown rice (Brazil), herbicidal effect; conditions: fentrazamide 250 EC 300 g a.i./ha; spray at BBCH 23 stage of the rice, 29 days after sowing; scored 2 weeks after application; outdoor test Brazil 1999
Description: as §1
as §2, with “(2 m×5” for “(2.5 m×2.5”, “29” for “7”, “(during the BBCH 23 development stage” for “(2-leaf-stage”, “rice; begin of stocking),” for “rice),”, “A few” for “2”
as §6, §4

Echinochloa crus-galli [17] = assay: as above; conditions: fentrazamide 250 EC 300 g a.i./ha; spray at BBCH 23 stage of the rice, 29 days after sowing; scored 2 weeks after application; outdoor test Brazil 1999
Description: as §1
as §2, with “(2 m×5” for “(2.5 m×2.5”, “29” for “7”, “(during the BBCH 23 development stage” for “(2-leaf-stage”, “rice; begin of stocking),” for “rice),”, “A few” for “2”
as §6, §4

Paddy rice (Oryza sp.) [18] = assay: Example E: test in sown rice (Brazil), damage to rice; conditions: fentrazamide 250 EC 300 g a.i./ha; spray at BBCH 23 stage of the rice, 29 days after sowing; scored 2 weeks after application; outdoor test Brazil 1999
Description: as §1
as §2, with “(2 m×5” for “(2.5 m×2.5”, “29” for “7”, “(during the BBCH 23 development stage” for “(2-leaf-stage”, “rice; begin of stocking),” for “rice),”, “A few” for “2”
as §6, §4

Paddy rice (Oryza sp.) [19] = assay: Example B: test in sown rice (Brazil), damage to rice; conditions: fentrazamide 250 EC 300 g a.i./ha; spray at BBCH 23 stage of the rice, 29 days after sowing; scored 2 weeks after application; outdoor test Brazil 1999
Description: as §1
as §2, with “(2 m×5” for “(2.5 m×2.5”, “29” for “7”, “(during the BBCH 23 development stage” for “(2-leaf-stage”, “rice; begin of stocking),” for “rice),”, “A few” for “2”
as §6, §4

Aeschynomene rudis = assay: Example A: test in sown rice (Brazil), herbicidal effect; conditions: fentrazamide 250 EC 400 g a.i./ha; spray at 1-2-leaf stage of the rice, 10 days after sowing; scored 3 weeks after application; outdoor test Brazil 1999
Description: as §1
as §2, with “(2 m×5” for “(2.5 m×2.5”, “10” for “7”, “(when” for “(2-leaf-stage of”, “rice has reached the 1-2-leaf stage),” for “rice),”, “1 month” for “2 days”
(§10) 3 weeks after the active compound application, the degree of damage to the rice plants and the herbicidal effect on the emerged weeds of the species Aeschynomene rudis is scored visually in percent in comparison to an untreated control.
as §4

Paddy rice (Oryza sp.) [20] = assay: Example A: test in sown rice (Brazil), damage to rice; conditions: fentrazamide 250 EC 400 g a.i./ha; spray at 1-2-leaf stage of the rice, 10 days after sowing; scored 3 weeks after application; outdoor test Brazil 1999
Description: as §1
as §2, with “(2 m×5” for “(2.5 m×2.5”, “10” for “7”, “(when” for “(2-leaf-stage of”, “rice has reached the 1-2-leaf stage),” for “rice),”, “1 month” for “2 days”
as §10, §4

CCN(C(=O)n1nnn(-c2ccccc2Cl)c1=O)C1CCCCC1 [(A), 4-(2-chlorophenyl)-N-cyclohexyl-N-ethyl-4,5-dihydro-5-oxo-1H-tetrazole-1-carboxamide]
Damage or action in % Echinochloa crus-galli found (Echinochloa crus-galli [1]): 58%
Damage or action in % Paddy rice (Oryza sp.) found (Paddy rice (Oryza sp.) [2]): 0%
Damage or action in % Paddy rice (Oryza sp.) found (Paddy rice (Oryza sp.) [3]): 0%
Damage or action in % Leptochloa chinensis found (Leptochloa chinensis): 38%
Damage or action in % Echinochloa crus-galli found (Echinochloa crus-galli [4]): 47%
Damage or action in % Brachiaria plantaginea found (Brachiaria plantaginea [5]): 10%
Damage or action in % Echinochloa crus-galli found (Echinochloa crus-galli [6]): 35%
Damage or action in % Echinochloa crus-galli found (Echinochloa crus-galli [7]): 78%
Damage or action in % Commelina Bengha-lensis found (Commelina benghalensis): 50%
Damage or action in % Acantho-spermum hispidum found (Acanthospermum hispidum): 50%
Damage or action in % Eleusine indica found (Eleusine indica): 50%
Damage or action in % Digitaria Sanguina-lis found (Digitaria sanguinalis): 50%
Damage or action in % Mountain rice (Oryza sp.) found [8]: 0%
Damage or action in % Paddy rice (Oryza sp.) found (Paddy rice (Oryza sp.) [9]): 0%
Damage or action in % Paddy rice (Oryza sp.) found (Paddy rice (Oryza sp.) [10]): 3%
Damage or action in % Paddy rice (Oryza sp.) found (Paddy rice (Oryza sp.) [11]): 2%
Damage or action in % Brachiaria plantaginea found (Brachiaria plantaginea [12]): 10%
Damage or action in % Echinochloa crus-galli found (Echinochloa crus-galli [13]): 35%
Damage or action in % Brachiaria plantaginea found (Brachiaria plantaginea [14]): 10%
Damage or action in % Echinochloa crus-galli found (Echinochloa crus-galli [15]): 35%
Damage or action in % Brachiaria plantaginea found (Brachiaria plantaginea [16]): 10%
Damage or action in % Echinochloa crus-galli found (Echinochloa crus-galli [17]): 35%
Damage or action in % Paddy rice (Oryza sp.) found (Paddy rice (Oryza sp.) [18]): 0%
Damage or action in % Paddy rice (Oryza sp.) found (Paddy rice (Oryza sp.) [19]): 0%
Damage or action in % Aeschynomene rudis found (Aeschynomene rudis): 30%
Damage or action in % Paddy rice (Oryza sp.) found (Paddy rice (Oryza sp.) [20]): 0%
